From the supplement of paper PMC11451515

Tested on: P12-Ichikawa
Assay: cell viability relative to DMSO control; higher = less cytotoxic
Conditions: 48 h
Method in brief: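 NOMO1 or SEM cells were plated at 500 cells/well and P12-Ichikawa cells at 1000 cells/well in 1536-well plates (5 μl), after each leukemia line had been adapted for at least four passages in each medium. Pin dosing delivered library compounds in DMSO at 11 threefold concentrations, 47 μM to 0.79 nM. CellTiter-Glo One luminescence was read after 48 h at 37°C. Viability is reported as a per-plate percentage of DMSO wells, with cell-free wells as background.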

[1] = HPLM + 10% dialyzed FBS, 0.000781 µM
[2] = HPLM + 10% dialyzed FBS, 0.00234 µM
[3] = HPLM + 10% dialyzed FBS, 0.00702 µM
[4] = HPLM + 10% dialyzed FBS, 0.0211 µM
[5] = HPLM + 10% dialyzed FBS, 0.0632 µM
[6] = HPLM + 10% dialyzed FBS, 0.19 µM
[7] = HPLM + 10% dialyzed FBS, 0.569 µM
[8] = HPLM + 10% dialyzed FBS, 1.71 µM
[9] = HPLM + 10% dialyzed FBS, 5.12 µM
[10] = HPLM + 10% dialyzed FBS, 15.4 µM
[11] = HPLM + 10% dialyzed FBS, 46.1 µM
[12] = RPMI 5 mM glucose + 10% FBS, 0.000781 µM
[13] = RPMI 5 mM glucose + 10% FBS, 0.00234 µM
[14] = RPMI 5 mM glucose + 10% FBS, 0.00702 µM
[15] = RPMI 5 mM glucose + 10% FBS, 0.0211 µM
[16] = RPMI 5 mM glucose + 10% FBS, 0.0632 µM
[17] = RPMI 5 mM glucose + 10% FBS, 0.19 µM
[18] = RPMI 5 mM glucose + 10% FBS, 0.569 µM
[19] = RPMI 5 mM glucose + 10% FBS, 1.71 µM
[20] = RPMI 5 mM glucose + 10% FBS, 5.12 µM
[21] = RPMI 5 mM glucose + 10% FBS, 15.4 µM
[22] = RPMI 5 mM glucose + 10% FBS, 46.1 µM
[23] = RPMI 5 mM glucose + 10% dialyzed FBS, 0.000781 µM
[24] = RPMI 5 mM glucose + 10% dialyzed FBS, 0.00234 µM
[25] = RPMI 5 mM glucose + 10% dialyzed FBS, 0.00702 µM
[26] = RPMI 5 mM glucose + 10% dialyzed FBS, 0.0211 µM
[27] = RPMI 5 mM glucose + 10% dialyzed FBS, 0.0632 µM
[28] = RPMI 5 mM glucose + 10% dialyzed FBS, 0.19 µM
[29] = RPMI 5 mM glucose + 10% dialyzed FBS, 0.569 µM
[30] = RPMI 5 mM glucose + 10% dialyzed FBS, 1.71 µM
[31] = RPMI 5 mM glucose + 10% dialyzed FBS, 5.12 µM
[32] = RPMI 5 mM glucose + 10% dialyzed FBS, 15.4 µM
[33] = RPMI 5 mM glucose + 10% dialyzed FBS, 46.1 µM

SMILES	cell viability [1]	cell viability [2]	cell viability [3]	cell viability [4]	cell viability [5]	cell viability [6]	cell viability [7]	cell viability [8]	cell viability [9]	cell viability [10]	cell viability [11]	cell viability [12]	cell viability [13]	cell viability [14]	cell viability [15]	cell viability [16]	cell viability [17]	cell viability [18]	cell viability [19]	cell viability [20]	cell viability [21]	cell viability [22]	cell viability [23]	cell viability [24]	cell viability [25]	cell viability [26]	cell viability [27]	cell viability [28]	cell viability [29]	cell viability [30]	cell viability [31]	cell viability [32]	cell viability [33]
O=C(C=CC#Cc1cccc(N[S+](=O)([O-])c2ccccc2)c1)NO	110%	113%	118%	116%	119%	114%	103%	92.7%	3.67%	3.02%	3%	113%	119%	116%	123%	117%	116%	122%	75.6%	6.32%	3.14%	2.9%	113%	114%	117%	121%	117%	117%	113%	80.4%	3.83%	2.6%	2.95%
O=C(O)C1(Cc2cccc(Nc3nccs3)n2)CCC(Oc2cccc(Cl)c2F)CC1 (configuration not stated)	102%	111%	112%	108%	115%	114%	99.5%	57.8%	39.4%	18.8%	13.7%	102%	116%	108%	93.8%	122%	111%	108%	65.8%	47.1%	33.9%	17.3%	108%	116%	118%	116%	116%	117%	115%	68.9%	65.2%	33.5%	31.8%
c1ccc(CCCN2CCN(CCOC(c3ccccc3)c3ccccc3)CC2)cc1	89.2%	90.8%	104%	95.5%	99.2%	91.3%	89.7%	87.5%	91.6%	77.3%	67.3%	91.4%	97.1%	94.4%	94.5%	93.9%	94%	98.2%	90.2%	92.3%	78.4%	55%	83.7%	88.3%	88%	91.4%	94.1%	85%	94.7%	87.1%	88.5%	75.2%	38.3%
C[C@H]1C[C@@H]2[C@H](CC[C@@]3(C)[C@H]2CC[C@]3(OC(C)=O)C(C)=O)[C@@]\4(C)CCC(=O)\C=C14	99.8%	105%	111%	107%	122%	115%	114%	107%	98.7%	95.5%	107%	112%	112%	123%	108%	113%	113%	110%	101%	94.3%	80.3%	96.3%	101%	113%	102%	107%	120%	103%	96.3%	93.7%	96%	80.1%	88.4%
FC1=C(C=C(C\C2=N\NC(=O)C3=C2C=CC=C3)C=C1)C(=O)N4CCN(CC4)C(=O)C5CC5	81.1%	90.8%	94%	96.2%	99%	87.4%	95.6%	85.7%	85.5%	88.3%	49.4%	81.6%	84.1%	86.7%	88.2%	88.7%	86.5%	86.1%	82.5%	83.8%	72.1%	38.9%	78.9%	87.3%	86.5%	87.1%	91.2%	93.2%	82%	82.1%	78.9%	73%	53.9%
COC(=O)C[C@](O)(CCCC(C)(C)O)C(=O)O[C@@H]1C(OC)=CC23CCCN2CCc2cc4c(cc2[C@H]13)OCO4 (some centres not stated)	105%	102%	111%	99.4%	110%	106%	102%	97.1%	102%	91.3%	88.1%	99%	101%	111%	94.8%	91.5%	101%	103%	97.7%	95.1%	91.7%	94.1%	102%	104%	98.6%	99.7%	102%	98.3%	97.3%	96%	91.6%	100%	89.5%
CC[S+](=O)([O-])c1cccc(-c2cc(C(=O)NC3CCN(C)CC3)c(C)c3[nH]c4ncc(C)cc4c23)c1	121%	122%	123%	128%	123%	112%	15.7%	19.5%	19%	26.9%	34.9%																						
O=C(Nc1cccc(C(F)(F)F)c1)Nc1cc([S+](=O)([O-])NC2CC2)ccc1-c1ccsc1	127%	109%	115%	111%	112%	114%	110%	110%	108%	104%	76.9%	120%	118%	119%	112%	123%	118%	116%	119%	112%	110%	69.8%	121%	116%	107%	121%	117%	119%	105%	94.1%	107%	103%	50.1%
